{"source": "paper PMC5797729", "about": "“Structure/Function Studies of the α4 Subunit Reveal Evolutionary Loss of a GlyR Subtype Involved in Startle and Escape Responses” (Frontiers in Molecular Neuroscience, 2018)", "key": {"[1]": {"system": "T1, Human α4^K59E/C204Y + α1", "T1 construct": "gene GLRA1", "conditions": "agonist; -40 mV; pH 7.4; 22 °C", "from_the_text": "whole-cell patch clamp, Hill fit on Human α4^K59E/C204Y + α1"}, "[2]": {"molecular_target": "T2, Mouse α4 GlyR (Mus musculus, UniProt Q61603)", "T2 construct": "gene Glra4; full-length wild-type cDNA from whole brain in pRK5, homomeric pentamer, HEK293 cells", "T2 sequence (Q61603 28-456)": "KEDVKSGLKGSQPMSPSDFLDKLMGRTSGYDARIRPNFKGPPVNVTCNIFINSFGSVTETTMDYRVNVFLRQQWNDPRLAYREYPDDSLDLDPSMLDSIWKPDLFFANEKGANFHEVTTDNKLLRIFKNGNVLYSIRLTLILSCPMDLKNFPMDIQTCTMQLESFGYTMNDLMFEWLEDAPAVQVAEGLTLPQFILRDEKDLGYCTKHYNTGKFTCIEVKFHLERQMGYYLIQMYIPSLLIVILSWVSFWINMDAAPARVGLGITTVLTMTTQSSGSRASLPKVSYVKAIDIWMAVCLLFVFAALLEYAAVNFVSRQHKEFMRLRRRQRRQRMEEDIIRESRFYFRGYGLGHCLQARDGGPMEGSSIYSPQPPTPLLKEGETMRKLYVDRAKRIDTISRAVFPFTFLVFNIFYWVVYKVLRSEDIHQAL", "experiment": "whole-cell patch clamp, Hill fit", "type": "cell-based", "from_the_text": "whole-cell patch clamp, Hill fit on Mouse α4 GlyR"}, "[3]": {"molecular_target": "T3, Gorilla α4 GlyR (Gorilla gorilla, UniProt G3RDJ8)", "T3 construct": "gene GLRA4; full-length synthetic predicted cDNA in pRK5, homomeric pentamer, HEK293 cells", "T3 sequence (G3RDJ8 29-457)": "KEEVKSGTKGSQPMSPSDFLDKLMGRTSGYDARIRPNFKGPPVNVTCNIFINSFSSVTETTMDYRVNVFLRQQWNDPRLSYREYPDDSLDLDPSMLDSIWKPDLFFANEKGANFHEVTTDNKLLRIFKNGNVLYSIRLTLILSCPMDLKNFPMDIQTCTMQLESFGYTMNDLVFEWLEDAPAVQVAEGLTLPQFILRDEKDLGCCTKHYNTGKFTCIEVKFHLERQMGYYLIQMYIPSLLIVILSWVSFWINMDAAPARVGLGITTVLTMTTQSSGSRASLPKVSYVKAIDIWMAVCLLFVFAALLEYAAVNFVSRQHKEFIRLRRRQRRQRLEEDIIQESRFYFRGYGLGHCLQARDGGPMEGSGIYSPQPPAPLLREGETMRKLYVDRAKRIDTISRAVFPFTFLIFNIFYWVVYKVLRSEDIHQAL", "experiment": "whole-cell patch clamp, Hill fit", "type": "cell-based", "from_the_text": "whole-cell patch clamp, Hill fit on Gorilla α4 GlyR"}}, "data": [{"smiles": "NCC(=O)O", "note": "[glycine]", "values": [{"measurement": "EC50", "setting": "[1]", "value": "350 ± 29", "unit": "µM"}, {"measurement": "EC50", "setting": "[2]", "value": "61 ± 10", "unit": "µM"}, {"measurement": "EC50", "setting": "[3]", "value": "86 ± 16", "unit": "µM"}]}]}
